Experiments:
[1] = Remineralization of demineralized dentin surfaces with Quell Desensitizer (SEM); set-up: species or system human; conditions: 12.5 μM peptide one hour, then Quell Desensitizer 15 minutes
Protocol: FIG. 4: Remineralization of tooth surfaces with DSS peptides. Extracted human teeth were sagitally sectioned and demineralized with 19% EDTA gel for 1 hour, followed by immersion in deionized water and ultrasonication to remove excess debris. Samples were treated as indicated, then imaged by Scanning Electron Microscopy. Scale bars=50 μm. A. Demineralized control samples. B. Treated with 8DSS for 1 hour, rinsed, and remineralized using Quell Desensitizer. C. Treated with buffer only, remineralized using Quell Desensitizer. D. No treatment, remineralized using Quell Desensitizer. Extracted human teeth were sagitally sectioned (Accutom-50, CA-231 diamond blade) and demineralized with 19% EthyleneDiaminoTetraAcetic acid (EDTA) gel for one hour, followed by immersion in deionized water and ultrasonication to remove excess debris. Samples were treated with 12.5 μM 8DSS peptide in 50 mM HEPES buffer (pH 7.0), buffer only (no peptide), or left untreated. After one hour, samples were remineralized for 15 minutes with Quell Desensitizer (Pentron technologies, LLC), a remineralization solution consisting of aqueous solutions of calcium chloride and potassium phosphate. Samples were rinsed thoroughly prior to imaging by scanning electron microscopy (SEM).

[2] = Nucleation of hydroxyapatite on tooth enamel and dentin (SEM); set-up: species or system human; conditions: 12.5 μM peptide, SBFn 4 hours then SBFg
Protocol: FIG. 5: Nucleation of hydroxyapatite on enamel (top) and dentin (bottom) surfaces. Surfaces were prepared and treated as described in Example 6 and as indicated by the labels, followed by imaging using Scanning Electron Microscopy. The upper group (top two rows) represents enamel samples, while the lower group (bottom two rows) represents dentin samples. Within each group, the top row represents samples that were not demineralized prior to treatment, and the bottom row represents samples that were demineralized by treatment with phosphoric acid. Scanning Electron Micrographs are shown, scale bars=[…]. Left column: samples that were not exposed to any treatment prior to nucleation and crystal growth. Center column: samples that were exposed to buffer only prior to nucleation and crystal growth. Right column: samples that were exposed to 12.5 μM 8DSS peptide prior to nucleation and crystal growth. Crystal growth indicates early nucleation. To determine whether applying DSS to various preparations of tissue promoted HA nucleation, which could ultimately lead to tissue remineralization, sagittally sectioned adult human teeth (obtained after extraction during normal clinical practice) were polished using a Streurs grinding wheel, and prepared for nucleation experiments. […]

[3] = Binding to calcium oxalate crystals (fluorescence microscopy); conditions: 12.5 μM labeled peptide, ten minutes
Protocol: FIG. 11: Binding of 8DSS peptide to calcium oxalate. Calcium oxalate crystals were exposed to 12.5 μM 8DSS peptide, washed, and imaged by fluorescence microscopy as described in Example 12. […] The brightfield image (top) confirms the presence of crystals, while the fluorescence image of the same region (bottom) confirms that calcium oxalate has no visible fluorescence under these conditions. […] Calcium oxalate was prepared using a previously described method (Wang 2006). Crystals of calcium oxalate were washed with deionized water, then resuspended in a solution containing 50 mM HEPES pH 7.0, 10 mM NaCl, and 12.5 μM 5(6)-carboxyfluorescein-labeled 8DSS peptide. The crystal suspension was incubated at room temperature for ten minutes. The crystals were then harvested by centrifugation, washed twice with a solution of 50 mM HEPES pH 7.0 and 10 mM NaCl, and visualized by fluorescence microscopy as described in Example 11.

[4] = Remineralization of demineralized rat femur (SEM); conditions: peptide one hour, then Quell Desensitizer
Protocol: FIG. 7: Mineralization of bone. Rat femurs were obtained from sacrificed animals under a shared tissue protocol. Samples were demineralized, rinsed, and ultrasonicated to remove debris. Test samples were treated with 8DSS peptide for one hour, rinsed, remineralized using Quell Desensitizer as described in Example 8, then imaged by Scanning Electron Microscopy. SEM images are shown. Top: untreated sample, showing the surface of the bone completely covered by mineral. Center: demineralized sample, showing Haversian canals exposed by removal of the mineral layer. Bottom: Bone treated with 8DSS and Quell Desensitizer (an aqueous CaCl2/K2HPO4 solution), showing reestablishment of the mineral layer.
In order to determine whether the remineralization results observed for tooth tissues can be extended to bone, rat femurs were obtained from sacrificed animals under a shared tissue protocol. Test samples were demineralized with 19% EDTA gel for one hour, followed by immersion in deionized water and ultrasonication to remove excess debris. Test samples were then treated with 8DSS peptide for one hour, rinsed, and half of the samples were remineralized using Quell Desensitizer (Pentron Clinical Technologies, LLC) as described in Example 5. All samples were then prepared for SEM and imaged as in Example 5. […] In the demineralized sample, the Haversian canals were clearly exposed (FIG. 7, middle panel). […]

8DSS: peptide containing eight Asp-Ser-Ser (DSS) repeats, SEQ ID NO:15 (DSSDSSDSSDSSDSSDSSDSSDSS; calcium binding peptide containing eight DSS repeats, 8DSS)
Mineral precipitate accumulation on demineralized dentin [1]: accumulated a continuous layer of calcium phosphate precipitate, fully occluding the dentinal tubules
Crystal growth (nucleation) on demineralized enamel [2]: significant crystal growth
Crystal growth (nucleation) on nondemineralized dentin [2]: most significant growth
Staining of calcium oxalate aggregates [3]: significant staining
Remineralization of demineralized bone surface [4]: the mineral surface was restored and occlusion of the canals was observed
